This is an account of results in the SangsterLogP compilation.

This series is described as follows: method code SF-AS, from DOI: 10.1002/qsar.19890080102.

The term logD denotes the decadic logarithm of the distribution of all forms, ionised or not, between an organic phase and buffer at a given pH. Read a high logD as higher lipophilicity. Where the note is “pH 1.5”, `NS(=O)(=O)c1cccc(I)c1` showed a logD of 1.58.

In turn, `NS(=O)(=O)c1ccc(-c2ccccc2)cc1` returned a logD (pH 1.5) of 2.24.

As to `CCCCOc1cccc(S(N)(=O)=O)c1`, the logD (pH 1.5) is 2.06.

On to `NS(=O)(=O)c1ccc(Br)cc1`, for which the logD (pH 1.5) was 1.34.

Consider `CC(C)c1cccc(S(N)(=O)=O)c1`, for which the logD (pH 1.5) turned out to be 1.66.

Regarding `NS(=O)(=O)c1cccc(Br)c1`, the logD (pH 1.5) stood at 1.35.

`NS(=O)(=O)c1cccc(Cl)c1` came in with a logD (pH 1.5) of 1.16.

With `NS(=O)(=O)c1cccc(S(N)(=O)=O)c1`, the logD (pH 1.5) is -0.5.

In turn, `CC(C)c1ccc(S(N)(=O)=O)cc1` displayed a logD (pH 1.5) of 1.71.

Regarding `CCCCOc1ccc(S(N)(=O)=O)cc1`, the logD (pH 1.5) amounted to 2.05.

Regarding `NS(=O)(=O)c1ccc(I)cc1`, the logD (pH 1.5) was found to be 1.55.

Under “pH 5.5”, `Nc1cccc(S(N)(=O)=O)c1` had a logD of -0.32.

As to `CS(=O)(=O)Nc1ccc(S(N)(=O)=O)cc1`, the logD (pH 1.5) was -0.4.
